Test results as given in patent US5821240A, “Pyrimido[5,4]-dipyrimidines, pharmaceuticals containing them, their use and processes for the preparation thereof” (Dr. Karl Thomae GmbH, priority 1996, dated 1998).

Experiments:
F/L-HERc cells = experiment: Inhibition of IL-3-dependent proliferation of F/L-HERc cells; format: cell-based; conditions: Mus musculus, murine IL-3, 37° C., 48 hours
Description: (§1) In this case, an interleukin-3 (IL-3)-dependent cell line of murine origin was used and was genetically modified in such a way that it expresses functional human EGF-R. Proliferation of these cells, which are called F/L-HERc, can therefore be stimulated either by murine IL-3 or by EGF (see von Ruden, T. et al. in EMBO J. 7, 2749-2756 (1988) and Pierce, J. H. et al. in Science 239, […] (1988)).
(§2) The starting material for the F/L-HERc cells was the cell line FDC-P1 whose preparation has been described by Dexter, T. M. et al. in J. Exp. Med. 152, 1036-1047 (1980). However, it is also possible as an alternative to use other growth factor-dependent cells (see, for example, Pierce, J. H. et al. in Science 239, 628-631 (1988), Shibuya, H. et al. in Cell 70, 57-67 (1992) and Alexander, W. S. et al. in EMBO J. 10, 3683-3691 (1991)). Recombinant retroviruses as described in von Ruden, T. et al., EMBO J. 7, 2749-2756 (1988) Were used for expression of the human EGF-R cDNA (see Ullrich, A. et al. in Nature 309, 418-425 (1984)), with the difference that the retroviral vector LXSN (see Miller, A. D. et al. in BioTechniques 7, 980-990 (1989)) was employed for expression of the EGF-R cDNA, and the line GP+E86 (see Markowitz, D. et al. in J. Virol. 62, 1120-1124 (1988)) was used as packaging cell.
(§3) F/L-HERc cells were cultivated in RPMI/1640 medium (BioWhittaker), supplemented with 10% fetal calf serum (FCS, Boehringer Mannheim), 2 mM glutamine (BioWhittaker), standard antibiotics and 20 ng/ml human EGF (Promega), at 37° C. and 5% CO2. To investigate the inhibitor activity of the compounds according to the invention, 1.5×10^4 cells were cultivated in the above medium (200 μl) per well in triplicates in 96-well plates, stimulating proliferation of the cells either with EGF (20 ng/ml) or with murine IL-3. The source used for IL-3 was culture supernatants from the cell line X63/0 mIL-3 (see Karasuyama, H. et al. in Eur. J. Immunol. 18, 97-104 (1988)). The compounds according to the invention were dissolved in 100% dimethyl sulphoxide (DMSO) and added in various dilutions to the cultures, with the maximum DMSO concentration being 1%. The cultures were incubated at 37° C. for 48 hours.
(§4) To determine the inhibitory activity of the compounds according to the invention, the relative cell count was measured in O.D. units using the Cell Titre 96™ AQueous Non-Radioactive Cell Proliferation Assay (Promega). The relative cell count was calculated as a percent of the control (F/L-HERc cells without inhibitor), and the concentration of active substance which inhibits the proliferation of the cells by 50% (IC50) was inferred.

[1] = tested on: F/L-HERc cells expressing human EGF-R; experiment: Inhibition of EGF-dependent proliferation of F/L-HERc cells; format: cell-based, murine cell line; human EGF-R; conditions: EGF 20 ng/ml, 37° C., 48 hours
Description: as §1, §2, §3, §4

Structure (SMILES)	IC50 (F/L-HERc cells)	IC50 [1]
COC(=O)NC1CCN(c2ncc3ncnc(Nc4ccc(F)c(Cl)c4)c3n2)CC1 [1(1), 4-[(3-Chloro-4-fluorophenyl)amino]-6-[4-methoxycarbonylamino-1-piperidinyl]pyrimido[5,4-d]pyrimidine]	> 10000 nM	34 nM
CC(C)(C)OC(=O)N1CCC(Nc2ncc3ncnc(Nc4ccc(F)c(Cl)c4)c3n2)CC1 [1(2), 4-[(3-Chloro-4-fluorophenyl)amino]-6-[1-tert-butyloxycarbonyl-4-piperidinylamino]pyrimido[5,4-d]pyrimidine]	> 10000 nM	44 nM
Nc1c(Br)cc(Nc2ncnc3cnc(N4CCC(N)CC4)nc23)cc1Br [1(3), 4-[(4-Amino-3,5-dibromophenyl)amino]-6-[4-amino-1-piperidinyl]pyrimido[5,4-d]pyrimidine]	> 1000 nM	67 nM
O=CNC1CCN(c2ncc3ncnc(Nc4ccc(F)c(Cl)c4)c3n2)CC1 [1(5), 4-[(3-Chloro-4-fluorophenyl)amino]-6-[4-formylamino-1-piperidinyl]pyrimido[5,4-d]pyrimidine]	> 10000 nM	21 nM
NCCNc1ncc2ncnc(Nc3ccc(F)c(Cl)c3)c2n1 [1(6), 4-[(3-Chloro-4-fluorophenyl)amino]-6-[2-aminoethylamino]-pyrimido[5,4-d]pyrimidine]	> 10000 nM	123 nM
NCCCNc1ncc2ncnc(Nc3ccc(F)c(Cl)c3)c2n1 [1(9), 4-[(3-Chloro-4-fluorophenyl)amino]-6-[3-aminopropylamino]pyrimido[5,4-d]pyrimidine]	> 10000 nM	18 nM
NCCCCNc1ncc2ncnc(Nc3ccc(F)c(Cl)c3)c2n1 [1(10), 4-[(3-Chloro-4-fluorophenyl)amino]-6-[4-aminobutylamino]pyrimido[5,4-d]pyrimidine]	> 10000 nM	17 nM
CC(N)CNc1ncc2ncnc(Nc3ccc(F)c(Cl)c3)c2n1 (stereo not shown) [1(11), 4-[(3-Chloro-4-fluorophenyl)amino]-6-[2-amino-1-propylamino]pyrimido[5,4-d]pyrimidine]	> 10000 nM	75 nM
CN1CCCN(c2ncc3ncnc(Nc4ccc(F)c(Cl)c4)c3n2)CC1 [1(12), 4-[(3-Chloro-4-fluorophenyl)amino]-6-[4-methyl-1-homopiperazinyl]pyrimido[5,4-d]pyrimidine]	> 10000 nM	375 nM
Fc1ccc(Nc2ncnc3cnc(N4CCCNCC4)nc23)cc1Cl [1(13), 4-[(3-Chloro-4-fluorophenyl)amino]-6-[1-homopiperazinyl]-pyrimido[5,4-d]pyrimidine]	> 10000 nM	150 nM
Nc1ccc(CNc2ncc3ncnc(Nc4ccc(F)c(Cl)c4)c3n2)cc1 [1(14), 4-[(3-Chloro-4-fluorophenyl)amino]-6-[4-aminobenzylamino]pyrimido[5,4-d]pyrimidine]	> 10000 nM	28 nM
COC(=O)[C@H]1CC[C@H](Nc2ncc3ncnc(Nc4cc(Cl)c(N)c(Cl)c4)c3n2)CC1 [1(15), 4-[(4-Amino-3,5-dichlorophenyl)amino]-6-[(trans-4-methoxycarbonylcyclohexyl)amino]pyrimido[5,4-d]pyrimidine]	> 10000 nM	15 nM
CCN(CCO)c1ncc2ncnc(Nc3ccc(F)c(Cl)c3)c2n1 [1(23), 4-[(3-Chloro-4-fluorophenyl)amino]-6-[N-ethyl-N-(2-hydroxyethyl)amino]pyrimido[5,4-d]pyrimidine]	> 1000 nM	63 nM
Fc1ccc(Nc2ncnc3cnc(NCC45CCN(CC4)CC5)nc23)cc1Cl [1(24), 4-[(3-Chloro-4-fluorophenyl)amino]-6-[4-quinuclidinylmethylamino]pyrimido[5,4-d]pyrimidine]	> 1000 nM	9 nM
COC(CNc1ncc2ncnc(Nc3ccc(F)c(Cl)c3)c2n1)OC [1(25), 4-[(3-Chloro-4-fluorophenyl)amino]-6-[2,2-dimethoxyethylamino]pyrimido[5,4-d]pyrimidine]	> 20000 nM	28 nM
CC(C)(C)OC(=O)N1CCC(CNc2ncc3ncnc(Nc4ccc(F)c(Cl)c4)c3n2)CC1 [1(26), 4-[(3-Chloro-4-fluorophenyl)amino]-6-[(1-tert-butyloxycarbonyl-4-piperidinyl)methylamino]pyrimido[5,4-d]pyrimidine]	> 20000 nM	200 nM
CC(C)(N)CNc1ncc2ncnc(Nc3ccc(F)c(Cl)c3)c2n1 [1(27), 4-[(3-Chloro-4-fluorophenyl)amino]-6-[2-amino-2-methyl-1-propylamino]pyrimido[5,4-d]pyrimidine]	> 10000 nM	40 nM
CN1CCC(N(C)c2ncc3ncnc(Nc4ccc(F)c(Cl)c4)c3n2)CC1 [1(28), 4-[(3-Chloro-4-fluorophenyl)amino]-6-[N-methyl-N-(1-methyl-4-piperidinyl)amino]pyrimido[5,4-d]pyrimidine]	10000 nM	14 nM
Fc1ccc(Nc2ncnc3cnc(NCC4CCNCC4)nc23)cc1Cl [1(29), 4-[(3-Chloro-4-fluorophenyl)amino]-6-[4-piperidinylmethylamino]pyrimido[5,4-d]pyrimidine]	> 20000 nM	13 nM
Fc1ccc(Nc2ncnc3cnc(N4CCC(N5CCOCC5)CC4)nc23)cc1Cl [1(30), 4-[(3-Chloro-4-fluorophenyl)amino]-6-[4-(morpholino)-1-Piperidinyl]pyrimido[5,4-d]pyrimidine]	> 20000 nM	125 nM
Fc1ccc(Nc2ncnc3cnc(N4CCC(N5CCCC5)CC4)nc23)cc1Cl [1(31), 4-[(3-Chloro-4-fluorophenyl)amino]-6-[4-(1-pyrrolidinyl)-1-piperidinyl]pyrimido[5,4-d]pyrimidine]	10000 nM	103 nM
COc1cccc(N2CCN(c3ncc4ncnc(Nc5ccc(F)c(Cl)c5)c4n3)CC2)c1 [1(32), 4-[(3-Chloro-4-fluorophenyl)amino]-6-[4-(3-methoxyphenyl)-1-piperazinyl]pyrimido[5,4-d]pyrimidine]	> 20000 nM	> 1000 nM
COc1ccccc1N1CCN(c2ncc3ncnc(Nc4ccc(F)c(Cl)c4)c3n2)CC1 [1(33), 4-[(3-Chloro-4-fluorophenyl)amino]-6-[4-(2-methoxyphenyl)-1-piperazinyl]pyrimido[5,4-d]pyrimidine]	> 20000 nM	> 1000 nM
CC(C)(C)OC(=O)N1CCN(CCNc2ncc3ncnc(Nc4ccc(F)c(Cl)c4)c3n2)CC1 [1(35), 4-[(3-Chloro-4-fluorophenyl)amino]-6-[2-(4-tert-butyloxycarbonyl-1-piperazinyl)ethylamino]pyrimido[5,4-d]pyrimidine]	> 1000 nM	240 nM
CC1CC(c2ccc(O)cc2)CN1c1ncc2ncnc(Nc3ccc(F)c(Cl)c3)c2n1 (stereo not shown) [1(36), 4-[(3-Chloro-4-fluorophenyl)amino]-6-[4-(4-hydroxyphenyl)-2-methyl-1-pyrrolidinyl]pyrimido[5,4-d]pyrimidine]	> 1000 nM	140 nM
NCC1CCCC(CNc2ncc3ncnc(Nc4ccc(F)c(Cl)c4)c3n2)C1 (stereo not shown) [1(38), 4-[(3-Chloro-4-fluorophenyl)amino]-6-[3-(aminomethyl)cyclohexylmethylamino]pyrimido[5,4-d]pyrimidine]	> 1000 nM	51 nM
CN1CCC(C2CCN(c3ncc4ncnc(Nc5ccc(F)c(Cl)c5)c4n3)CC2)CC1 [1(41), 4-[(3-Chloro-4-fluorophenyl)amino]-6-[4-(1-methyl-4-piperidinyl)-1-piperidinyl]pyrimido[5,4-d]pyrimidine]	> 1000 nM	200 nM
Fc1ccc(Nc2ncnc3cnc(NC4CCCN(Cc5ccccc5)CC4)nc23)cc1Cl (stereo not shown) [1(42), 4-[(3-Chloro-4-fluorophenyl)amino]-6-[1-benzyl-4-(1-azacycloheptyl)amino]pyrimido[5,4-d]pyrimidine]	> 1000 nM	> 100 nM
CN1CCN(C2CCC(Nc3ncc4ncnc(Nc5ccc(F)c(Cl)c5)c4n3)CC2)CC1 (stereo not shown) [1(46), 4-[(3-Chloro-4-fluorophenyl)amino]-6-[4-(1-methyl-4-piperazinyl)cyclohexylamino]pyrimido[5,4-d]pyrimidine]	> 1000 nM	2 nM
